Results taken from patent publication US11000033B2, “Ketone or oxime compound, and herbicide” (NISSAN CHEMICAL CORPORATION, priority 2014, dated 2021).

How the values were obtained:
Format in all cases: in vivo
rice plant = test: Test Example 5: effect on crop by foliage application, plastic box (symbol b); conditions: 320 g/ha, 3 weeks after application
In short: (§1)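 Soil: sterilized diluvial. Container: plastic box, 21 × 13 cm, 7 cm deep. Sowing: spot-like, ~1.5 cm cover. Growth: greenhouse, 25° C. to 30° C.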

Veronica persica = test: Test Example 5: herbicidal effect by foliage application, plastic box (symbol R); conditions: 320 g/ha, 3 weeks after application
In short: (§2)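 Leaf-applied emulsion, water-diluted to a preset herbicide dose, on two-week-old seedlings raised in a 25° C. to 30° C. greenhouse; injury rated at 3 weeks using earlier criteria.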

Abutilon theophrasti = test: Test Example 5: herbicidal effect by foliage application, plastic box (symbol M); conditions: 320 g/ha, 3 weeks after application
In short: as §2

Stellaria media = test: Test Example 5: herbicidal effect by foliage application, plastic box (symbol P); conditions: 320 g/ha, 3 weeks after application
In short: as §2

Lolium multiflorum Lam. = test: Test Example 4: herbicidal effect by soil treatment (symbol K); conditions: application herbicide amount 320 g/ha
In short: (§3)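 Seeds were sown in sterilized diluvial soil, covered with about 1.5 cm of soil, and the soil surface was sprayed with a water-diluted emulsion of the compound at a predetermined rate. Plants grew in a greenhouse at 25° C. to 30° C.; effects were scored visually 3 weeks after application.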

Scirpus juncoides = test: Test Example 1: herbicidal activity, application before weed generation in submerged conditions (symbol B); conditions: application herbicide amount 320 g/ha
In short: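 Steps: alluvial soil flooded to 4 cm; weed seeds sown together; rice seedlings (2.5 leaf) transplanted; diluted emulsion applied to water surface the same day as sowing; plants grown at 25–30 °C in greenhouse; herbicidal effect rated on a 0–5 scale at 3 weeks.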

Setaria viridis = test: Test Example 5: herbicidal effect by foliage application, plastic box (symbol G); conditions: 320 g/ha, 3 weeks after application
In short: as §2

soybean = test: Test Example 5: effect on crop by foliage application, plastic box (symbol d); conditions: 320 g/ha, 3 weeks after application
In short: as §1

Amaranthus retroflexus = test: Test Example 4: herbicidal effect by soil treatment (symbol N); conditions: application herbicide amount 320 g/ha
In short: as §3

rice = test: Test Example 4: effect on crop by soil treatment (symbol b); conditions: application herbicide amount 320 g/ha
In short: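 Crop seed is sown in spots together with several weed species in a box of sterilized diluvial soil. It is covered by about 1.5 cm of soil and kept in a greenhouse held between 25° C. and 30° C.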

Alopecurus myosuroides = test: Test Example 5: herbicidal effect by foliage application, plastic box (symbol J); conditions: 320 g/ha, 3 weeks after application
In short: as §2

Digitaria ciliaris = test: Test Example 4: herbicidal effect by soil treatment (symbol F); conditions: application herbicide amount 320 g/ha
In short: as §3

Cyperus difformis = test: Test Example 3: herbicidal effect by foliage application, Wagner pot (symbol E); conditions: application herbicide amount 320 g/ha
In short: (§4)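 Herbicidal activity was rated three weeks after a foliar spray of diluted emulsion concentrate, applied at a predetermined dose to plants grown for 14 days from seed in waterlogged alluvial soil within a 25–30 °C greenhouse.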

[1] = tested on: Echinochloa crus-galli var. crus-galli; test: Test Example 4: herbicidal effect by soil treatment (symbol H); conditions: application herbicide amount 320 g/ha
In short: as §3

Galium spurium = test: Test Example 5: herbicidal effect by foliage application, plastic box (symbol Q); conditions: 320 g/ha, 3 weeks after application
In short: as §2

Leptochloa chinensis = test: Test Example 3: herbicidal effect by foliage application, Wagner pot (symbol D); conditions: application herbicide amount 320 g/ha
In short: as §4

Row | Compound | b: directly sowed rice plant, effect on crop grade (rice plant) | R: Veronica persica, herbicidal effect grade (Veronica persica) | M: Abutilon theophrasti, herbicidal effect grade (Abutilon theophrasti) | P: Stellaria media, herbicidal effect grade (Stellaria media) | K: Lolium multiflorum Lam., herbicidal effect grade (Lolium multiflorum Lam.) | Herbicidal effect grade, B: Scirpus juncoides (Scirpus juncoides) | G: Setaria viridis, herbicidal effect grade (Setaria viridis) | d: soybean, effect on crop grade (soybean) | N: Amaranthus retroflexus, herbicidal effect grade (Amaranthus retroflexus) | b: directly sowed rice plant, effect on crop grade (rice) | J: Alopecurus myosuroides, herbicidal effect grade (Alopecurus myosuroides) | F: Digitaria ciliaris, herbicidal effect grade (Digitaria ciliaris) | herbicidal effect on E, grade 0-5 (Cyperus difformis) | H: Echinochloa crus-galli var. crus-galli, herbicidal effect grade [1] | Q: Galium spurium, herbicidal effect grade (Galium spurium) | herbicidal effect on D (Leptochloa chinensis), grade 0-5 (Leptochloa chinensis)
1 | CCC(=O)CCC1CC(O)=C(c2c(C)cc(C)cc2C)C1=O (centres unmarked) [5-001] | 4 (Herbicidal ratio of 70% or higher and lower than 90%) | 0 (Herbicidal ratio of 5% or lower (almost no effect)) | 0 (Herbicidal ratio of 5% or lower (almost no effect)) | 0 (Herbicidal ratio of 5% or lower (almost no effect)) | 5 (Herbicidal ratio of 90% or more (almost completely withered)) | 0 (Herbicidal ratio of 5% or lower (almost no effect)) | 3 (Herbicidal ratio of 40% or higher and lower than 70%) | 0 (Herbicidal ratio of 5% or lower (almost no effect)) | 0 (Herbicidal ratio of 5% or lower (almost no effect)) | 5 (Herbicidal ratio of 90% or more (almost completely withered)) | 5 (Herbicidal ratio of 90% or more (almost completely withered)) | 4 (Herbicidal ratio of 70% or higher and lower than 90%) | 0 (Herbicidal ratio of 5% or lower (almost no effect)) | 1 (Herbicidal ratio of 5% or higher and lower than 20%) | 0 (Herbicidal ratio of 5% or lower (almost no effect)) | 3 (Herbicidal ratio of 40% or higher and lower than 70%)
2 | CON=C(C)CC1CC(O)=C(c2c(C)cc(C(=O)OC)cc2C)C1=O (centres unmarked) [6-023] | 5 (Herbicidal ratio of 90% or more (almost completely withered)) | 1 (Herbicidal ratio of 5% or higher and lower than 20%) | 0 (Herbicidal ratio of 5% or lower (almost no effect)) | 0 (Herbicidal ratio of 5% or lower (almost no effect)) | 5 (Herbicidal ratio of 90% or more (almost completely withered)) | 0 (Herbicidal ratio of 5% or lower (almost no effect)) | 5 (Herbicidal ratio of 90% or more (almost completely withered)) | 0 (Herbicidal ratio of 5% or lower (almost no effect)) | 0 (Herbicidal ratio of 5% or lower (almost no effect)) | 5 (Herbicidal ratio of 90% or more (almost completely withered)) | 5 (Herbicidal ratio of 90% or more (almost completely withered)) | 1 (Herbicidal ratio of 5% or higher and lower than 20%) | 4 (Herbicidal ratio of 70% or higher and lower than 90%) | 0 (Herbicidal ratio of 5% or lower (almost no effect)) | 0 (Herbicidal ratio of 5% or lower (almost no effect)) | 5 (Herbicidal ratio of 90% or more (almost completely withered))
